The values that follow come from US6329497A, “Sandramycin analogs” (The Scripps Research Institute, priority 1999, dated 2001).

Data set [1] addresses HIV-1 reverse transcriptase (Human immunodeficiency virus type 1 group M subtype B, UniProt P04585). Description: Inhibition of HIV-1 reverse transcriptase. Type of data set: biochemical. The method, then:
The assay was performed according to an available procedure (Goldman, M. E.; Salituro, G. S.; Bowen, J. A.; Williamson, J. M.; Zink, D. L.; Schleif, W. A.; Emini, E. A. Mol. Pharmacol. 1990, 38, 20) with slight modification. A 45 L solution of reaction buffer containing 55 mM Tris·HCl, pH 8.2, 80 mM potassium chloride, 12 mM MgCl2, 1 mM DTT, 50 M EGTA, 2.5 g/mL rA·dT, 0.5 Ci of [^3 H]TTP, 10 M TTP, 1 mg/mL BSA, and 0.01% Triton X-100 was added to a well in a filter cluster plate (Millipore MAHV N45). The reverse transcription reaction was initiated upon addition of the reverse transcriptase (1 unit; 1 unit=10 pmol of [^3 H]TMP incorporated/60 min at 37° C.). The plate was incubated at 37° C. for 90 min. The plate was then placed on ice and 200 µL of 13% trichloroacetic acid and 10 mM sodium pyrophosphate was added to each well. The plate was chilled for 2 h and the liquid vacuumed out through the filter using a Millipore manifold (Millipore MAVM 09601). The precipitate was washed with 1 M and 10 mM sodium pyrophosphate twice. The filter was punched out and placed in a scintillation vial. 4 mL of cocktail was added. Radioactivity was determined by liquid scintillation counting.
The effects of sandramycin and its analogs on HIV-1 reverse transcriptase were determined by incubating the agents and the rA·dT containing buffer at 25° C. for 30 min prior to addition of the reverse transcriptase. Reactions containing no agents were used as controls, and those lacking the transcriptase were used as blanks.

Data set [2] deals with calf thymus DNA and 5'-d(GCATGC)2. Description: DNA binding affinity trends over calf thymus DNA and 5'-d(GCATGC)2 (fluorescence quenching). On the procedure: Apparent absolute DNA binding constants for 1-22 and related agents including luzopeptin A were obtained by measurement of the fluorescence quenching upon titration addition of calf thymus DNA or the deoxyoligonucleotides 5'-d(GCXXGC)2 where XX=AT, TA, GC, and CG. For each agent, the characteristic fluorescence excitation and emission spectra were recorded in 10 mM Tris-HCl, 75 mM NaCl (pH 7.4) buffer, FIG. 6. For the DNA binding assays which quantitate the fluorescence quenching, excitation outside the absorbance range of DNA was employed and the most intense fluorescence emission at a longer wavelength monitored. For assay of the DNA-induced fluorescence quenching of the agents, a 2 mL buffer solution of Tris-HCl (pH 7.4) and 75 mM NaCl was employed. For titration, small aliquots of DNA were added to solutions of the agents in Tris-HCl buffer (pH 7.4).
Despite these precautions, the fluorescence for a number of the analog solutions decreased for several of analogs (11, 14, 17, 21 and 22) and the quality of the binding constants for these should be viewed with caution. […] The titrations were carried out with 15 min time intervals between DNA additions to allow binding equilibration. […] The titration fluorescence quenching was analyzed by Scatchard analysis (Scatchard, G. Ann. N. Y. Acad. Sci. 1949, 51, 660) with the following equation: rb /c=Kb n-Kb rb where rb is the number of agent molecules bound per DNA base-pair, c is the free drug concentration, Kb is the apparent association constant, and n is the number of agent binding sites per base-pair.
A pronounced downward curvature in an infinite lattice such as calf thymus DNA is recognized to arise in part from neighbor exclusion where the binding of an agent excludes the subsequent binding at nearby sites. This exclusion manifests itself in the plot by a reduction in the apparent binding constant as the DNA lattice approaches saturation and the probability of finding a free site is diminished. In the calf thymus DNA studies, the binding also entails multiple classes of independent binding sites or modes. For simplicity, a linear fit of the high affinity binding sites was used to determine the binding constant attributable to bis-intercalation. For the deoxyoligonucleotides, the curvature can be more simply attributed to multiple classes of independent binding sites or binding modes. There are a number of mathematical methods to deconvolute the curved plot into such individual binding events. In the deoxyoligonucleotide studies, a non-linear fit described by Feldman was also used to deconvolute the curves. The model assumes one ligand with two binding types or sites. Since the number of binding sites is limited, we have interpreted this to indicate a high affinity bis-intercalation and a lower affinity binding potentially involving mono-intercalation. The formula was fit using the JMP^22 statistical fitting program using an initial approximation of the two n values and fitting for K1 and K2.
After 5 min of stirring, an initial fluorescence reading was taken with minimum exposure to the excitation beam. […] The excitation and emission wavelengths used for each analog varied and can be found in FIG. 6. The results of the titration were analyzed by Scatchard analysis. The linear portion of the Scatchard plot was used to determine the high affinity binding constants. In the case of the deoxyoligonucleotide study, a non-linear fit of the curve as described in the text was also used to determine the high affinity binding constant (Feldman, H. A. Anal. Biochem. 1972, 48, 317).

A further data set relates to L1210 cell line. Description: In vitro cytotoxic activity, L1210. The format is cell-based.
In another data set the test system is five cell lines. Description: In vitro cytotoxic activity of key substructure analogs, five cell lines. Type of data set: cell-based. To be noted: five cell lines.

On to “(N-(3-Benzyloxy-7-chloroquinolinyl-2-carbonyl)-D-Ser-Pip-Gly-Sar-NMe-Val)2 (Serine Hydroxyl) Dilactone [compound 17]”, for which, in data set [1], the “reduction in inhibitory potency on O-alkylation of the C3 phenol” value was above 500. Further, in data set [2] (O-benzylation of chromophore phenol), the “reduction of the binding affinity versus 16” value is 2.4 to 2.7 kcal/mol.
Regarding `CC(C)C1C(=O)OCC(NC(=O)c2cc3ccccc3cc2OCc2ccccc2)C(=O)N2CCCCC2C(=O)NCC(=O)N(C)CC(=O)N(C)C(C(C)C)C(=O)OCC(NC(=O)c2cc3ccccc3cc2OCc2ccccc2)C(=O)N2CCCCC2C(=O)NCC(=O)N(C)CC(=O)N1C` [compound 6, (N-(3-Benzyl-oxynaphthyl-2-carbonyl)-D-Ser-Pip-Gly-Sar-NMe-Val)2 (Serine Hydroxyl) Dilactone], in the data set on L1210 cell line, the “cytotoxic potency, fold less potent than 2” value is recorded as above 5000 and the “cytotoxic potency, fold less potent than 5” value was above 500.
As to “Sandramycin Bis-O-benzyl Ether [compound 2]”, in the data set on five cell lines, the “fold less potent than 1” value is 20-1000. The “cytotoxic potency, fold less potent than 1” value with L1210 cell line stood at 1000.
In the case of `Cc1ccc2nc(C(=O)N[C@@H]3COC(=O)[C@H](C(C)C)N(C)C(=O)CN(C)C(=O)CNC(=O)[C@@H]4CCCCN4C(=O)[C@H](NC(=O)c4nc5ccc(C)cc5cc4O)COC(=O)[C@H](C(C)C)N(C)C(=O)CN(C)C(=O)CNC(=O)[C@@H]4CCCCN4C3=O)c(O)cc2c1` [compound 14, (N-(-3-Hydroxy-6-methylquinolinyl-2-carbonyl)-D-Ser-Pip-Gly-Sar-NMe-Val). sub.2 (Serine Hydroxyl) Dilactone], in data set [1], the “HIV-1 reverse transcriptase inhibition, in words” value is reported as “Comparable but slightly less potent inhibition”. Also, in data set [2], the “DNA binding affinity, in words” value was “consistently slightly less effective”. In the data set with L1210 cell line, the “cytotoxic potency, fold less potent than 1” value was 1.
As to “(N-(3-Benzyl-oxypyridyl-2-carbonyl)-D-Ser-Pip-Gly-Sar-NMe-Val)2 (Serine Hydroxyl) Dilactons [compound 9]”, in the data set with L1210 cell line, the “cytotoxic potency, fold less potent than 2” value came to 4000 and the “cytotoxic potency, fold less potent than 8” value was determined as 1000.
In the case of `COc1ccc2nc(C(=O)NC3COC(=O)C(C(C)C)N(C)C(=O)CN(C)C(=O)CNC(=O)C4CCCCN4C(=O)C(NC(=O)c4nc5ccc(OC)cc5cc4OCc4ccccc4)COC(=O)C(C(C)C)N(C)C(=O)CN(C)C(=O)CNC(=O)C4CCCCN4C3=O)c(OCc3ccccc3)cc2c1` [compound 12, (N-(3-Benzyloxy-6-methoxy-quinolinyl-2-carbonyl)-D-Ser-Pip-Gly-Sar-NMe-Val)2 (Serine Hydroxyl) Dilactone], in the data set with L1210 cell line, the “cytotoxic potency, fold less potent than 2” value is 0.8 and the “cytotoxic potency, fold less potent than 11” value was 400.
In the case of `COc1ccc2nc(C(=O)NC3COC(=O)C(C(C)C)N(C)C(=O)CN(C)C(=O)CNC(=O)C4CCCCN4C(=O)C(NC(=O)c4nc5ccc(OC)cc5cc4O)COC(=O)C(C(C)C)N(C)C(=O)CN(C)C(=O)CNC(=O)C4CCCCN4C3=O)c(O)cc2c1` [compound 11, (N-(3-Hydroxy-6-Methoxy-quinolinyl-3-carbonyl)-D-Ser-Pip-Gly-Sar-NMe-Val)2 (Serine Hydroxyl) Dilactone], the “DNA binding affinity, in words” value in data set [2] was “slightly less effective”. In addition, the “cytotoxic potency, fold less potent than 1” value in the data set with L1210 cell line is 2.
On to `CC(C)[C@H]1C(=O)OC[C@@H](NC(=O)c2nc3cc(Cl)ccc3cc2O)C(=O)N2CCCC[C@H]2C(=O)NCC(=O)N(C)CC(=O)N(C)[C@@H](C(C)C)C(=O)OC[C@@H](NC(=O)c2nc3cc(Cl)ccc3cc2O)C(=O)N2CCCC[C@H]2C(=O)NCC(=O)N(C)CC(=O)N1C` [compound 16, (N-(7-Chloro-3-hydroxyquinolinyl-2-carbonyl)-D-Ser-Pip-Gly-Sar-NMe-Val). sub.2 (Serine Hydroxyl) Dilactone], for which the “HIV-1 reverse transcriptase inhibition, in words” value in data set [1] is reported as “Comparable but slightly less potent inhibition”. The “DNA binding affinity, in words” value in data set [2] is given as “nearly indistinguishable from 1”. In the data set on L1210 cell line, the “cytotoxic potency, fold less potent than 1” value stood at 0.5.
Turning to `COc1ccc2nc(C(=O)N[C@@H]3COC(=O)[C@H](C(C)C)N(C)C(=O)CN(C)C(=O)CNC(=O)[C@@H]4CCCCN4C(=O)[C@H](NC(=O)c4ccc5cc(OC)ccc5n4)COC(=O)[C@H](C(C)C)N(C)C(=O)CN(C)C(=O)CNC(=O)[C@@H]4CCCCN4C3=O)ccc2c1` [compound 13, (N-(6-Methoxyquinolinyl-2-carbonyl)-D-Ser-Pip-Gly-Sar-NMe-Val)2 (Serine Hydroxyl) Dilactone], the “HIV-1 reverse transcriptase inhibition, in words” value in data set [1] is listed as “Comparable but slightly less potent inhibition”. Besides, in the data set on L1210 cell line, the “cytotoxic potency, fold less potent than 4” value amounted to 2 and the “cytotoxic potency, fold less potent than 11” value is recorded as 10.
On to `CC(C)[C@H]1C(=O)OC[C@@H](NC(=O)c2ccccn2)C(=O)N2CCCC[C@H]2C(=O)NCC(=O)N(C)CC(=O)N(C)[C@@H](C(C)C)C(=O)OC[C@@H](NC(=O)c2ccccn2)C(=O)N2CCCC[C@H]2C(=O)NCC(=O)N(C)CC(=O)N1C` [compound 10, (N-(Pyridyl-2-carbonyl)-D-Ser-Pip-Gly-Sar-NMe-Val)2 (Serine Hydroxyl) Dilactone], for which, in data set [1], the “HIV-1 reverse transcriptase inhibition, in words” value is recorded as “much less effective”. In the data set with L1210 cell line, the “cytotoxic potency, fold less potent than 4” value is given as 4×10^5 and the “cytotoxic potency, fold less potent than 8” value worked out at 1000.
With `CC(C)[C@H]1C(=O)OC[C@@H](NS(=O)(=O)CC[Si](C)(C)C)C(=O)N2CCCC[C@H]2C(=O)NCC(=O)N(C)CC(=O)N(C)[C@@H](C(C)C)C(=O)OC[C@@H](NC(=O)c2nc3ccccc3cc2O)C(=O)N2CCCC[C@H]2C(=O)NCC(=O)N(C)CC(=O)N1C` [compound 24, N^1 -SES,N^6 -(3-hydroxylquinoline-2-carbonyl) (D-Ser-Pip-Gly-Sar-NMe-Val)2 (Serine Hydroxyl) Dilactone], the “fold less potent than 1” value in the data set on five cell lines is recorded as 5000-10000.
Regarding `CC(C)C1C(=O)OCC(NC(=O)c2nc3ccccc3nc2OCc2ccccc2)C(=O)N2CCCCC2C(=O)NCC(=O)N(C)CC(=O)N(C)C(C(C)C)C(=O)OCC(NC(=O)c2nc3ccccc3nc2OCc2ccccc2)C(=O)N2CCCCC2C(=O)NCC(=O)N(C)CC(=O)N1C` [compound 20, (N-(3-Benzyl-oxyquinoxalyl-2-carbonyl)-D-Ser-Pip-Gly-Sar-NMe-Val)2 (Serine Hydroxyl) Dilactone], the “cytotoxic potency, fold less potent than 19” value with L1210 cell line turned out to be 7.
On to `COc1cc2ccccc2nc1C(=O)N[C@@H]1COC(=O)[C@H](C(C)C)N(C)C(=O)CN(C)C(=O)CNC(=O)[C@@H]2CCCCN2C(=O)[C@H](NC(=O)c2nc3ccccc3cc2OC)COC(=O)[C@H](C(C)C)N(C)C(=O)CN(C)C(=O)CNC(=O)[C@@H]2CCCCN2C1=O` [compound 3, (N-(3-Methoxy-quinolinyl-2-carbonyl)-D-ser-Pip-Gly-Sar-NMe-Val)2 (Serine Hydroxyl) Dilactone], for which, in data set [1], the “HIV-1 reverse transcriptase inhibition, in words” value is listed as “roughly maintain the HIV-1 reverse transcriptase inhibitory potency of 1” and the “reduction in inhibitory potency on O-alkylation of the C3 phenol” value was “approx. 10”.
